Measured values as given in patent US20100137346A1, “DESFE[…] ACTINIDE DEC[…]” (priority 2006, published 2010).
Where two headings read alike, the source gives them in different places.

Assay: Chelator-induced uranium excretion (urine + bile, 24 h) in bile duct-cannulated rat model
Format: in vivo
Description: Desferrithiocin Analogue Induced Excretion of Uranium. In order to compare results with previous chelator-induced iron excretion data, the uranium clearance studies were carried out in a bile duct-cannulated rat model. The animals were given uranyl acetate dihydrate SC at a dose of 5 mg/kg (the actual dose of uranium is 2.8 mg/kg). Bile and urine samples were collected for 24 hours after dosing. Kidneys were removed from selected animals and tissue uranium concentration measured. At least three animals were utilized in each experimental group. Data from two separate control studies (uranyl acetate/ no chelator) have now been combined for a total of 14 control animals. All uranium concentrations were measured using ICPMS. The data are reported as the total quantity of uranium excreted [urine +bile]; the mode of excretion [urine/bile] is also given. In addition the percentage of the administered dose of uranium cleared and chelator-induced uranium excretion vs the controls is also given. Four positive controls were evaluated: DTPA (13, Table 1) given as its trisodium calcium salt, DFO (14), N,N′-bis(2hydroxybenzyl)ethylenediamine-N,N′-diacetic acid, monosodium salt (NaHBED, 15) and the hydroxypyridone CP94 (16) shown to bind uranium [Pashalidis, et al., Effective complex formation in the interaction of 1,2-dimethyl-3-hydroxypyrid-4-one (Deferiprone or L1) with uranium(VI), Journal of Radioanalytical and Nuclear Chemistry 1999; 242:181-184.] The total metal cleared after 24 h in control rats was 10% of the administered dose. When DTPA, 13, was given IP or PO at 300 μmol/kg immediately after uranium, the excretion was 17% and 8% of the administered dose respectively (p>0.05). However, when the drug was given IP at a dose of 600 μmol/kg immediately post-metal, the uranium excretion was significant, 20% (p<0.005). This is consistent with previously published data using a similar animal model.[Domingo, et al., Comparative effects of the chelators sodium 4,5-dihydroxybenzene-1,3-disulfonate (Tiron) and diethylenetriaminepentaacetic acid (DTPA) on acute uranium nephrotoxicity in rats, Toxicology 1997; 118:49-59] DFO (14) and CP94 (16) given IP immediately post uranyl acetate were ineffective.
Desferrithiocin Analogue-Induced Excretion of Uranium. In order to compare results with previous chelator-induced iron excretion data, the uranium clearance studies were carried out in a bile duct-cannulated rat model. The animals were given uranyl acetate dihydrate SC at a dose of 5 mg/kg (the actual dose of uranium is 2.8 mg/kg). Bile and urine samples were collected for 24 hours after dosing. Kidneys were removed from selected animals and tissue uranium concentration measured. At least three animals were utilized in each experimental group. Data from two separate control studies (uranyl acetate/ no chelator) are combined for a total of 14 control animals. All uranium concentrations were measured using ICPMS. The data are reported as the total quantity of uranium excreted [urine +bile]; the mode of excretion [urine/bile] is also given. In addition the percentage of the administered dose of uranium cleared and chelator-induced uranium excretion vs the controls is also given. Four positive controls were evaluated: DTPA (1, Table 1) given as its trisodium calcium salt, DFO (2), N,N -bis(2-hydroxybenzyl)ethylenediamine-N,N-diacetic acid, monosodium salt (NaHBED, 3) and the hydroxypyridone CP94 (4) shown to bind uranium. The total metal cleared after 24 h in control rats was 10% of the administered dose. When DTPA, 1, was given IP or PO at 300 μmol/kg immediately after uranium, the excretion was 17% and 8% of the administered dose respectively (p>0.05). However, when the drug was given IP at a dose of 600 μmol/kg immediately post metal, the uranium excretion was significant, 20% (p<0.005). This is consistent with previously published data using a similar animal model.^2 DFO (2) and CP94 (4) given IP immediately post uranyl acetate were ineffective.

[1] = Rattus norvegicus, ip, 24 h, 300 μmol/kg IP Immediate, read-out: Chelator-Induced U Excretion/Control

Q: For `C[C@@]1(C(=O)O)CSC(c2ccc(O)cc2O)=N1` [drawing 13], which “% of Administered Dose Cleared” value (300 μmol/kg IP Immediate) is on record?
A: The value was 19%.

Q: Which “% of Administered Dose Cleared” value (150 μmol/kg IP Immediate) does the source give for `O=C([O-])CN(CCN(CC(=O)O)Cc1ccccc1O)Cc1ccccc1O.[Na+]` [drawing 6] here?
A: The value was 17%.

Q: What about the “Uranium Excretion” value (150 μmol/kg IP Immediate) of the same compound?
A: Its value is 483 ± 119 µg/kg.

Q: And the “Uranium Excretion [urine/bite]” value (150 μmol/kg IP Immediate)?
A: Its value is 97/3.

Q: What about the response vs control in vivo at 150 µmol/kg (Rattus norvegicus, ip, 24 h, 150 μmol/kg IP Immediate, read-out: Chelator-Induced U Excretion/Control) of the same compound?
A: Its response vs control in vivo at 150 µmol/kg is 170%.

Q: Which “% of Administered Dose Cleared” value (300 μmol/kg IP Immediate) does the source give for `COCCOCCOCCOc1ccc(C2=N[C@](C)(C(=O)O)CS2)c(O)c1` here?
A: Its value is 22%.

Q: And the “Uranium Excretion” value (300 μmol/kg IP Immediate)?
A: The value was 626 ± 123 µg/kg.

Q: And the “Uranium Excretion [urine/bite]” value (300 μmol/kg IP Immediate)?
A: Its value is 35/65.

Q: And the response vs control in vivo at 300 µmol/kg [1]?
A: The response vs control in vivo at 300 µmol/kg was 220%.

Q: For `O=C([O-])CN(CCN(CC(=O)O)Cc1ccccc1O)Cc1ccccc1O.[Na+]` [NaHBED, N,N′-bis(2hydroxybenzyl)ethylenediamine-N,N′-diacetic acid, monosodium salt, reference compound], which “uranium clearance, in words” value (given IP immediately post uranyl acetate, doses per Table 1) is on record?
A: The value was “marginally improved clearance”.

Q: Which “% of Administered Dose Cleared” value (300 μmol/kg IP Immediate) does the source give for `O=C(O)CN(CCN(CC(=O)O)CC(=O)O)CCN(CC(=O)O)CC(=O)O` [drawing 16] here?
A: Its value is 17%.

Q: And the “Chelator-Induced U Excretion/Control” value (300 μmol/kg IP Immediate)?
A: Its value is 1.7.

Q: And the “Uranium Excretion” value (300 μmol/kg IP Immediate)?
A: The value was 469 ± 271 µg/kg.

Q: And the “Uranium Excretion [urine/bite]” value (300 μmol/kg IP Immediate)?
A: Its value is 99/1.

Q: And the “% of Administered Dose Cleared” value (300 μmol/kg PO Immediate)?
A: Its value is 8%.

Q: What about the “Chelator-Induced U Excretion/Control” value (300 μmol/kg PO Immediate) of the same compound?
A: Its value is 0.8.

Q: What about the “Uranium Excretion” value (300 μmol/kg PO Immediate) of the same compound?
A: The value was 235 ± 205 µg/kg.

Q: And the “Uranium Excretion [urine/bite]” value (300 μmol/kg PO Immediate)?
A: Its value is 100/0.

Q: And the “% of Administered Dose Cleared” value (600 μmol/kg IP Immediate)?
A: Its value is 20%.

Q: What about the “Chelator-Induced U Excretion/Control” value (600 μmol/kg IP Immediate) of the same compound?
A: Its value is 2.0.

Q: What about the “Uranium Excretion” value (600 μmol/kg IP Immediate) of the same compound?
A: Its value is 548 ± 147 µg/kg.

Q: What about the “Uranium Excretion [urine/bite]” value (600 μmol/kg IP Immediate) of the same compound?
A: The value was 100/0.

Q: Which “% of Administered Dose Cleared” value (300 μmol/kg IP 0.5 h Post) does the source give for `COc1ccc(C2=N[C@](C)(C(=O)O)CS2)c(O)c1` here?
A: Its value is 15%.

Q: And the “Uranium Excretion” value (300 μmol/kg IP 0.5 h Post)?
A: The value was 413 ± 148 µg/kg.

Q: And the “Uranium Excretion [urine/bite]” value (300 μmol/kg IP 0.5 h Post)?
A: The value was 37/63.

Q: What about the “% of Administered Dose Cleared” value (300 μmol/kg IP Immediate) of the same compound?
A: The value was 20%.

Q: And the “Uranium Excretion” value (300 μmol/kg IP Immediate)?
A: Its value is 568 ± 133 µg/kg.

Q: And the “Uranium Excretion [urine/bite]” value (300 μmol/kg IP Immediate)?
A: Its value is 59/41.

Q: And the response vs control in vivo at 300 µmol/kg (Rattus norvegicus, ip, 24 h, 300 μmol/kg IP 0.5 h Post, read-out: Chelator-Induced U Excretion/Control)?
A: The response vs control in vivo at 300 µmol/kg was 150%.

Q: What about the response vs control in vivo at 300 µmol/kg [1] of the same compound?
A: The response vs control in vivo at 300 µmol/kg was 200%.

Q: Which results are given for `C[C@@]1(C(=O)O)CSC(c2ccc(O)cc2O)=N1` [drawing 10]?
A: % of Administered Dose Cleared (300 μmol/kg IP Immediate): 19%; Uranium Excretion (300 μmol/kg IP Immediate): 523 ± 180 µg/kg; Uranium Excretion [urine/bite] (300 μmol/kg IP Immediate): 92/8; response vs control in vivo at 300 µmol/kg [1]: 190%

Q: With `CC1(C)SC(c2ccccc2O)=NC1C(=O)O` (stereo in doubt) [Compound 17, (S)-4,5-dihydro-5,5-dimethyl-2-(2-hydroxyphenyl)-4-thiazolecarboxylic acid] as the compound, how does the “% of Administered Dose Cleared” value (300 μmol/kg IP Immediate) read?
A: Its value is 26%.

Q: And the “uranium excretion, in words” value (IP 300 μmol/kg, given 0.5 h post metal)?
A: Its value is “insignificant”.

Q: Which “% of Administered Dose Cleared” value (450 μmol/kg IP Immediate) does the source give for `CCC1=C(O)C(=O)CCN1CC` [drawing 7] here?
A: The value was 11%.

Q: What about the “Uranium Excretion” value (450 μmol/kg IP Immediate) of the same compound?
A: The value was 302 ± 171 µg/kg.

Q: And the “Uranium Excretion [urine/bite]” value (450 μmol/kg IP Immediate)?
A: The value was 100/0.

Q: And the response vs control in vivo at 450 µmol/kg (Rattus norvegicus, ip, 24 h, 450 μmol/kg IP Immediate, read-out: Chelator-Induced U Excretion/Control)?
A: The response vs control in vivo at 450 µmol/kg was 110%.
